Reference: patent US8362256B2, “Salts of N-[4-(1-cyanocyclopentyl)phenyl]-2-(4-pyridylmethyl)amino-3-pyridinecarboxamide” (Jiangsu Hengrui Medicine Co. Ltd., priority 2008, dated 2013)
Marks after values point to notes of the source that are not given here.

Assays:
Solubility = assay type: physicochemical
[1] = Stability in different conditions, content by HPLC; assay type: physicochemical
KDR = KDR (Homo sapiens, UniProt P35968); test: ELISA tyrosine kinase inhibition; assay type: biochemical; conditions: average of 3 experiments; read-out: IC50 ± SD, KDR
Description: (§1) Phosphorylation of substrate was determined with monoclonal antibody of anti-phosphorylation tyrosine (PY99). Goat anti-mouse IgG marked with HRP was then added, and the degree of phosphorylation of substrate was determined with OPD coloration. At the same time, the control group without tyrosine kinase and control wells of corresponding DMSO concentration were set up. 2 M of H2SO4 was added in 50 μl/well to terminate the reaction. Data was read with adjustable wavelength micro plate enzyme-labeling instrument VERSAmax (Sunnyvale, Calif., U.S.A.), followed by visualization reaction, OD490 nm value was then observed. […] Relative inhibition rate of drugs on tyrosine kinase protein was determined.

c-Kit = c-Kit (Homo sapiens, UniProt P10721); test: ELISA tyrosine kinase inhibition; assay type: biochemical; conditions: average of 3 experiments; read-out: IC50 ± SD, c-Kit
Description: as §1

EGFR1 = EGFR1 (Homo sapiens, UniProt P00533); test: ELISA tyrosine kinase inhibition; assay type: biochemical
Description: (§2) Phosphorylation of substrate was determined with monoclonal antibody of anti-phosphorylation tyrosine (PY99). Goat anti-mouse IgG marked with HRP was then added, and the degree of phosphorylation of substrate was determined with OPD coloration. At the same time, the control group without tyrosine kinase and control wells of corresponding DMSO concentration were set up. 2 M of H2SO4 was added in 50 μl/well to terminate the reaction. Data was read with adjustable wavelength micro plate enzyme-labeling instrument VERSAmax (Sunnyvale, Calif., U.S.A.), followed by visualization reaction, OD490 nm value was then observed.
(§3) Relative inhibition rate of drugs on tyrosine kinase protein was determined.

ErbB2 = ErbB2 (Homo sapiens, UniProt P04626); test: ELISA tyrosine kinase inhibition; assay type: biochemical
Description: as §2, §3

FGFR1 = FGFR1 (Homo sapiens, UniProt P11362); test: ELISA tyrosine kinase inhibition; assay type: biochemical
Description: as §2, §3

Flt1 = Flt1 (Homo sapiens, UniProt P17948); test: ELISA tyrosine kinase inhibition; assay type: biochemical; conditions: average of 3 experiments; read-out: IC50 ± SD, Flt1
Description: as §2, §3

PDGFRβ = PDGFRβ (Homo sapiens, UniProt P09619); test: ELISA tyrosine kinase inhibition; assay type: biochemical; conditions: average of 3 experiments; read-out: IC50 ± SD, PDGFRβ
Description: as §2, §3

c-Src = c-Src (Homo sapiens, UniProt P12931); test: ELISA tyrosine kinase inhibition; assay type: biochemical; conditions: average of 3 experiments; read-out: IC50 ± SD, c-Src
Description: as §2, §3

human colon cancer HT-29 = test: Efficacy on human colon cancer HT-29 transplanted in nude mice; conditions: for Weight after Removing Tumor, d0 / TV x ± SD, d0: d0 baseline; for RTV x ± SD / T/C / TV x ± SD, dn: dn 21 days; for Weight after Removing Tumor, dn: dn 21 days after first administration
Description: BALB/cA-nude mice, ♀, 5-6 weeks-old, purchased from Shanghai Slaccas experimental animals limited liability company. […] Rearing environment: SPF grade.
After one week adaption, the experimental animals were subcutaneously inoculated with human colon cancer HT-29 tumor tissues. When the tumors grew to 100-300 mm^3, the animals were randomly divided into several groups. […] Volume of tumors and weight of mice were measured 2-3 times every week, the data of which were recorded. The equation for the calculation of volume of tumors (V) is: V=½×a×b^2 wherein a, b represent length and width, respectively.

in vivo = conditions: male, Sprague-Dawley, rat, po; for MRT: MRT of compound A; for Tmax: Tmax of compound A
Excerpt: Male Sprague-Dawley (SD) rats (weight: about 250 g, experimental animal certification of fitness: 0006473) were purchased from Shanghai Slaccas experimental animals limited liability company (certification number: SCXK (Hu) 2003-0003). The relevant qualifications and state of health of the SD rats were checked first, and the eligible ones were placed into the clean grade chambers of rats in Shanghai institute of Materia Medica.
I. Analysis Condition of LC/MS/MS
Analysis Condition of Liquid Chromatography
Chromatographic column: Agilent Zorbax SB-C18 column (50 mm×2.1 mm ID);
Column temperature: 25° C.;
Mobile phase: A: H2O—CH3CN (2:98, v/v), B: H2O—CH3CN (10:90, v/v)
A: 25%+B: 75%, constant gradient elution;
Analysis time: 3 minutes.
The light circle was switched to 12/12 hour day/night in the clean grade chambers of rats. Humidity and temperature were 40-60% and 20-24° C., respectively. Every 4 rats were raised in a 36×24×19 cm^3 stainless rat cage. The rats took water freely and were fed special rat food regularly once daily. Only after one week adaption, the rats were used to conduct pharmacokinetics studies. 12 Sprague-Dawley rats were divided into 4 groups, 3 for each group.
The blood samples were collected 0 hour before the administration and 0.083, 0.25, 0.5, 1.0, 2, 4, 6, and 8 hours after the administration. The blood samples were collected at 250˜300 μL at each time point from posterior venous sinus of the eye after respiration anaesthesia with ether (the degree of anaesthesia was highly controlled). The blood was collected into test tubes containing heparin, and then was centrifuged to produce plasma. The obtained plasma was divided into 2 parts (50 μL for each part) and stored at −70° C. until analysis. […] After experiments, euthanasia was performed with CO2 gas.
Pharmacokinetics parameters of animal experiment of each group were calculated using InnaPhase Kinetica™ software (America).

[2] = concentration increased to 10^4 nM
[3] = 50 mg/kg p.o. once daily d0-d20
[4] = 100 mg/kg p.o. once daily d0-d20
[5] = 200 mg/kg p.o. once daily d0-d20

Chain of EGFR1 (P00533 25-1210): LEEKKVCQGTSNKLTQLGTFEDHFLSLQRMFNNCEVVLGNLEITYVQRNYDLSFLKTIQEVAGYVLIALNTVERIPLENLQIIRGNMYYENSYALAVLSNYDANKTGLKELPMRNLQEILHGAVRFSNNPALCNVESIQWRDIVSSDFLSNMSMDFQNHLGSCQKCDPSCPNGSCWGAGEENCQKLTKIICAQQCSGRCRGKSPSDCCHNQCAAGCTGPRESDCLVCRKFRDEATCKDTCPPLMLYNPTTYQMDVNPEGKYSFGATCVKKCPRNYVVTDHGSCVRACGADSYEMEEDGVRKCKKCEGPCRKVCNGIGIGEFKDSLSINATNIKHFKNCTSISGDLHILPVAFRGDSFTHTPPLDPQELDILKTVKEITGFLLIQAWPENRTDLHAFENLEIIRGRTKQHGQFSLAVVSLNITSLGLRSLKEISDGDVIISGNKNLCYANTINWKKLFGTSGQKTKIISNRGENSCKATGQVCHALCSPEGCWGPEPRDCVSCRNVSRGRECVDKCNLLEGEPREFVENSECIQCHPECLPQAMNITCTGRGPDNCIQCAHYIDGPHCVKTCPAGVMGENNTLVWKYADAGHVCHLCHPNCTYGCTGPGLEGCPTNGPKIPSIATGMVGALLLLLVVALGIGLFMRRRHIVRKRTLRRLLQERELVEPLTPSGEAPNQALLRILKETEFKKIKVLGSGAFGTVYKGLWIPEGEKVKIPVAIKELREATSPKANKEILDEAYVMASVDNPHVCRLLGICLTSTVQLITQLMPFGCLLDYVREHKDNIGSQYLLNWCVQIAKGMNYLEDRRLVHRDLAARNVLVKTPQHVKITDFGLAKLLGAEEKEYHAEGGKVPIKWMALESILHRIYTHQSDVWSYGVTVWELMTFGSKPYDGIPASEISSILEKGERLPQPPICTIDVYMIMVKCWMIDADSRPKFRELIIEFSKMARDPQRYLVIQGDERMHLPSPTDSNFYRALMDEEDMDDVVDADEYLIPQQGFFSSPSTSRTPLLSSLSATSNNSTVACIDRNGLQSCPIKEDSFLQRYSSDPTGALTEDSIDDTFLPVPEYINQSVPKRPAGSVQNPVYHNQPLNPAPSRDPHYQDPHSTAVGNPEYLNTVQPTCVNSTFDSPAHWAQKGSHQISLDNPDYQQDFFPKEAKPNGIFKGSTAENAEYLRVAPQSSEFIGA
Chain of FGFR1 (P11362 22-822, species assumed): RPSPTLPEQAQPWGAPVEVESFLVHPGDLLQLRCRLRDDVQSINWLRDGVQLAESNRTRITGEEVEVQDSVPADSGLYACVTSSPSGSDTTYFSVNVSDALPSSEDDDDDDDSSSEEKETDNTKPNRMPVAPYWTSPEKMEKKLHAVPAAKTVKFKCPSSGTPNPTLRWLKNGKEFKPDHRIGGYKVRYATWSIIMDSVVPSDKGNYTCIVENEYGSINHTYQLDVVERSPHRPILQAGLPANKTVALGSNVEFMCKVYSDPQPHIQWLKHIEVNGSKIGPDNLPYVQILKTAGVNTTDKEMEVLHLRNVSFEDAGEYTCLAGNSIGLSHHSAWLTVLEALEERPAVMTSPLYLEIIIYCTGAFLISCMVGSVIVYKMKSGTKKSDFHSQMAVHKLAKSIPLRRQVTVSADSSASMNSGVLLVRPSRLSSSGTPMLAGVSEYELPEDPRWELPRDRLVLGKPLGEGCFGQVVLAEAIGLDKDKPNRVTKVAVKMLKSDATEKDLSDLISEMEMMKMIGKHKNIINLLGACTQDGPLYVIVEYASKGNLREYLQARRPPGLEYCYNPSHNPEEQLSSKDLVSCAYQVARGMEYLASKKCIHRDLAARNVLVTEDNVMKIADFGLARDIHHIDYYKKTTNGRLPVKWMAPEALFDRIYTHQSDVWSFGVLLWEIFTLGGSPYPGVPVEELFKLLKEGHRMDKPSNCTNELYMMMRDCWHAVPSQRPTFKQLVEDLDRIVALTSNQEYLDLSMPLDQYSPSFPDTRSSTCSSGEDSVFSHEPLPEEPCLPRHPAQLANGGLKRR
Chain of ErbB2 (P04626 23-1255, species assumed): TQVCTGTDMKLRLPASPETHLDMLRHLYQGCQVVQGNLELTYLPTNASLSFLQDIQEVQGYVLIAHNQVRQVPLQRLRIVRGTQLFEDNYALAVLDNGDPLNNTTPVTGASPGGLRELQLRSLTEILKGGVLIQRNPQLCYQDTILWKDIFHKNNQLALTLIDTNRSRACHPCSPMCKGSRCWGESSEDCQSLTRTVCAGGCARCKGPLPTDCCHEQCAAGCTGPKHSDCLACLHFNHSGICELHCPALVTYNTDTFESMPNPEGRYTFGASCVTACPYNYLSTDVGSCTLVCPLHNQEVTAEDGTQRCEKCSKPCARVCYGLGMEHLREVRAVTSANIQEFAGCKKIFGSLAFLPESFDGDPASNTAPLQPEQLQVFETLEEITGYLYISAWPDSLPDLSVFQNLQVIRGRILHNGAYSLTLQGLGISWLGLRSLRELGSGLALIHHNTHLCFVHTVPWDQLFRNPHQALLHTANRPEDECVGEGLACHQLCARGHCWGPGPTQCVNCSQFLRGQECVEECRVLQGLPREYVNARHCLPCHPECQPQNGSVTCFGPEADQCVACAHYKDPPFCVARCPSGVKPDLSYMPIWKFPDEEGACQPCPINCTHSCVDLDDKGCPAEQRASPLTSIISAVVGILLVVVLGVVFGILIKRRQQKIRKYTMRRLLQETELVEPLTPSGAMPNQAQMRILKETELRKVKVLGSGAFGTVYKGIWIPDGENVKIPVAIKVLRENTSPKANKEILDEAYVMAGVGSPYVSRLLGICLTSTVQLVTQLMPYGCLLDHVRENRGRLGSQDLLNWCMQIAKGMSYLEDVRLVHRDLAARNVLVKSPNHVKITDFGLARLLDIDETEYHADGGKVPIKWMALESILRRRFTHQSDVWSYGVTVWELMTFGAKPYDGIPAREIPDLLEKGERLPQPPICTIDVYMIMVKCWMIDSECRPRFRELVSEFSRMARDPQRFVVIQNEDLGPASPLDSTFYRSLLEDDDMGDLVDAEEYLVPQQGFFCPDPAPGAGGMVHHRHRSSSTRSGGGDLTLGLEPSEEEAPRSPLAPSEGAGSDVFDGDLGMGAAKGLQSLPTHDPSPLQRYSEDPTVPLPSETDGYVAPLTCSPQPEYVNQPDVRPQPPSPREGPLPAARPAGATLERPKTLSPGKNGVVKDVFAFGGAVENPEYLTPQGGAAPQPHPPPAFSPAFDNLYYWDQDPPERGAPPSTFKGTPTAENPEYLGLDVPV
Chain of c-Kit (P10721 26-976): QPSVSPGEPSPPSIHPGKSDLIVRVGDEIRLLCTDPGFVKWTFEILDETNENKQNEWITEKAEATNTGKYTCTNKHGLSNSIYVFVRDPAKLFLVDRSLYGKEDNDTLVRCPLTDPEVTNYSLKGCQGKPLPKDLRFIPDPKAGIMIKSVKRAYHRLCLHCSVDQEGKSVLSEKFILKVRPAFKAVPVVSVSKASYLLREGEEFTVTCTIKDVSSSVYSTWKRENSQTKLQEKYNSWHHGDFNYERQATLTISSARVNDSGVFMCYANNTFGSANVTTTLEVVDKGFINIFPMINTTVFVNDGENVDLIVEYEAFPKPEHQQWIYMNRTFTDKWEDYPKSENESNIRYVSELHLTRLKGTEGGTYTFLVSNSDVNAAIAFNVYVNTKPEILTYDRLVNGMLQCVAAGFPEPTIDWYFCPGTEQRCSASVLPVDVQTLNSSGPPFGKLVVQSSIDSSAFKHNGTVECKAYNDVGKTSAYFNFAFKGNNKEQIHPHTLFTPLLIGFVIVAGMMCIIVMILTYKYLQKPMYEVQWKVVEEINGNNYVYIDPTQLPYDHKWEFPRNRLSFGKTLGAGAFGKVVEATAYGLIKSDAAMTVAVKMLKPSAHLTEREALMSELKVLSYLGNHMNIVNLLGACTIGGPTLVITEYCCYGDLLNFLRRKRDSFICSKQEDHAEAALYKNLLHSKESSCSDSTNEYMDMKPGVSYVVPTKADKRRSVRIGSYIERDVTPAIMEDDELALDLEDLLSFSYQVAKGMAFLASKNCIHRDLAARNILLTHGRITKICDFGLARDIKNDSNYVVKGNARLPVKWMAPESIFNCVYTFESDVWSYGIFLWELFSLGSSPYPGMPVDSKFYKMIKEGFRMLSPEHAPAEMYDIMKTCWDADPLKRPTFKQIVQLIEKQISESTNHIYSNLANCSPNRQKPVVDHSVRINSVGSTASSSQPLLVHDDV
Chain of c-Src (P12931 whole entry, species assumed): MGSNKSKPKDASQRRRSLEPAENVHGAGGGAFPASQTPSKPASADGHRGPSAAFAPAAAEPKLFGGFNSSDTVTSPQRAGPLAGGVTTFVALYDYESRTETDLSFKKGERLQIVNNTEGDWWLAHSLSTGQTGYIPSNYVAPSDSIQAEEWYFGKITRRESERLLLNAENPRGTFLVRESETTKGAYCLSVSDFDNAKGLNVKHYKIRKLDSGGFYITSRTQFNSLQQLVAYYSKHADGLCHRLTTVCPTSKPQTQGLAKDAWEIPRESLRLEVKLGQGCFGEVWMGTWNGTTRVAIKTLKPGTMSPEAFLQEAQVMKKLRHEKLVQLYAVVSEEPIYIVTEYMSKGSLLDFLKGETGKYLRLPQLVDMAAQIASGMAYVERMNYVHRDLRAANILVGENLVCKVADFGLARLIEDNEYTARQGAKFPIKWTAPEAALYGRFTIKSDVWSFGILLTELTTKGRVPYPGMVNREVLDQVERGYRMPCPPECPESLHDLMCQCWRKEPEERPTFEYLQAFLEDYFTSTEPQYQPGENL

Structure (SMILES): N#CC1(c2ccc(NC(=O)c3cccnc3NCc3ccncc3)cc2)CCCC1 [Mesylate of compound A]
- Solubility in water (Solubility): Insoluble
- stability (conclusion of stability experiments) [1]: most stable
- content after 6 Months Under Light ([1]; HPLC, initial purity 99.6%): 99.5%
- content after 6 Months at 60° C. ([1]; HPLC, initial purity 99.6%): 98.4%
- content after 6 Months at Room Temperature ([1]; HPLC, initial purity 99.6%): 99.5%
- IC50 (KDR): 2.43 nM
- IC50 (c-Kit): 420 nM
- IC50 (EGFR1; average of 3 experiments, read-out: IC50 ± SD, EGFR1): > 10 µM
- inhibition on EGFR1 (EGFR1; [2]): no inhibition
- IC50 (ErbB2; average of 3 experiments, read-out: IC50 ± SD, ErbB2): > 10 µM
- inhibition on ErbB2 (ErbB2; [2]): no inhibition
- IC50 (FGFR1; average of 3 experiments, read-out: IC50 ± SD, FGFR1): > 10 µM
- inhibition on FGFR1 (FGFR1; [2]): no inhibition
- IC50 (Flt1): 70.1 nM
- IC50 (PDGFRβ): 537 nM
- IC50 (c-Src): 349 nM
- Weight after Removing Tumor, d0 (human colon cancer HT-29; [3]): 16.1 g
- RTV x ± SD (human colon cancer HT-29; [3]): 5.42 ± 1.55
- T/C (human colon cancer HT-29; [3]): 62.5%
- TV x ± SD, dn (human colon cancer HT-29; [3]): 1250 ± 256
- Weight after Removing Tumor, dn (human colon cancer HT-29; [3]): 14.3 g
- TV x ± SD, d0 (human colon cancer HT-29; 50 mg/kg p.o.): 239 ± 49
- Weight after Removing Tumor, d0 (human colon cancer HT-29; [4]): 17.0 g
- RTV x ± SD (human colon cancer HT-29; [4]): 3.78 ± 1.46
- T/C (human colon cancer HT-29; [4]): 43.6^a %
- TV x ± SD, dn (human colon cancer HT-29; [4]): 998 ± 296
- Weight after Removing Tumor, dn (human colon cancer HT-29; [4]): 16.4 g
- TV x ± SD, d0 (human colon cancer HT-29; 100 mg/kg p.o.): 272 ± 37
- Weight after Removing Tumor, d0 (human colon cancer HT-29; [5]): 16.3 g
- RTV x ± SD (human colon cancer HT-29; [5]): 2.21 ± 0.52
- T/C (human colon cancer HT-29; [5]): 25.5^a %
- TV x ± SD, dn (human colon cancer HT-29; [5]): 571 ± 147
- Weight after Removing Tumor, dn (human colon cancer HT-29; [5]): 15.6 g
- T/C (human colon cancer HT-29; 200 mg/kg p.o. once daily d0-d20, listed as mesylate of compound A): 25.5%
- TV x ± SD, d0 (human colon cancer HT-29; 200 mg/kg p.o.): 260 ± 39
- tolerance (human colon cancer HT-29; mouse, in vivo, po): well tolerated
- AUC(0-t) (in vivo; 1 mmol/kg, AUC0→8 h Mol dose): 17200 ± 6980 ng·h/mL
- AUC(0-t) (in vivo; 20 mg/kg, AUC0→8 h of compound A, Mean ± SD): 697 ± 283 ng·h/mL
- concentration at 0 h (in vivo; 20 mg/kg, Blood Concentration of compound A, 0 h): 0 ng/mL
- concentration at 4 h (in vivo; 20 mg/kg, Blood Concentration of compound A, 4 h): 30.5 ng/mL
- concentration at 8 h (in vivo; 20 mg/kg, Blood Concentration of compound A, 8 h): 29.9 ng/mL
- Cmax (in vivo; 20 mg/kg, Cmax of compound A, Mean ± SD): 489 ± 296 ng/mL
- MRT (in vivo; 20 mg/kg): 1.18 h
- MRT (in vivo; 20 mg/kg, Mean ± SD): 1.64 ± 0.48 h
- half-life (in vivo; 20 mg/kg, T1/2 of compound A, Mean ± SD): 52.2 ± 23.4 min
- Tmax (in vivo; 20 mg/kg): 15 min
- Tmax (in vivo; 20 mg/kg, Mean ± SD): 19.8 ± 8.4 min
